According to US4411898A, “7-[2-Oxyimino-2-(2-aminothiazol-4-yl)acetamido]-3-(1-carboxya lkyl-1H-tetrazol-5-yl)thiomethyl-3-cephem-4-carboxylic acid compounds” (Fujisawa Pharmaceutical Co., Ltd., priority 1977, dated 1983):
≈ marks a conversion by molar mass, not a printed value. Counter-ions that a name gives are not always drawn.

How the values were obtained:
Experiment in all cases: In vitro antibacterial activity, two-fold agar-plate dilution method
Assay type in all cases: cell-based
Details in all cases: HI-agar, 37° C., 20 hours, read-out: minimal inhibitory concentration (MIC)
[1] = system: Staphylococcus aureus 209P JC-1
Method: (§1) In vitro antibacterial activity was determined by the two-fold agar-plate dilution method as described below.
(§2) One loopful of an overnight culture of each test strain in Trypticase-soy broth (10^8 viable cells per ml.) was streaked on heart infusion agar (HI-agar) containing graded concentrations of test compounds, and minimal inhibitory concentration (MIC) was expressed in terms of μg/ml. after incubation at 37° C. for 20 hours.

Proteus vulgaris 2 = system: Proteus vulgaris 2
Method: as §1, §2

Proteus mirabilis 525 = system: Proteus mirabilis 525
Method: as §1, §2

Klebsiella aerogenes 417 = system: Klebsiella aerogenes 417
Method: as §1, §2

Escherichia coli 324 = system: Escherichia coli 324
Method: as §1, §2

MIC [1] [µg/mL] | MIC (Proteus vulgaris 2) [µg/mL] | MIC (Proteus mirabilis 525) [µg/mL] | MIC (Klebsiella aerogenes 417) [µg/mL] | MIC (Escherichia coli 324) [µg/mL] | Compound
12.5 (≈ 21.4 µM) | 0.39 (≈ 0.668 µM) | – | – | – | CCCON=C(C(=O)NC1C(=O)N2C(C(=O)O)=C(CSc3nnnn3CC(=O)O)CSC12)c1csc(N)n1 (stereo not drawn) [Test Compound (1), 7-[2-n-Propoxyimino-2-(2-amino-1,3-thiazol-4-yl)acetamido]-3-(1-carboxymethyl-1H-tetrazol-5-yl)thiomethyl-3-cephem-4-carboxylic acid (syn isomer)]
– | – | 0.2 (≈ 0.369 µM) | 0.39 (≈ 0.72 µM) | 0.2 (≈ 0.369 µM) | CON=C(C(=O)NC1C(=O)N2C(C(=O)O)=C(CSc3nnnn3CC(=O)O)CSC12)c1csnn1 (stereo not drawn) [Test Compound (4), 7-[2-Methoxyimino-2-(1,2,3-thiadiazol-4-yl)acetamido]-3-(1-carboxymethyl-1H-tetrazol-5-yl)thiomethyl-3-cephem-4-carboxylic acid (syn isomer)]
12.5 | 0.78 | – | – | – | C=CCON=C(C(=O)NC1C(=O)N2C(C(=O)O)=C(CSc3nnnn3CC(=O)O)CSC12)c1csc(N)n1 (stereo not drawn) [Test Compound (2), 7-[2-Allyloxyimino-2-(2-amino-1,3-thiazol-4-yl)acetamido]-3-(1-carboxymethyl-1H-tetrazol-5-yl)thiomethyl-3-cephem-4-carboxylic acid hydrochloride (syn isomer)]
12.5 (≈ 21.6 µM) | 0.025 (≈ 0.0431 µM) | – | – | – | C#CCON=C(C(=O)NC1C(=O)N2C(C(=O)O)=C(CSc3nnnn3CC(=O)O)CSC12)c1csc(N)n1 (stereo not drawn) [Test Compound (3), 7-[2-(2-Propynyloxyimino)-2-(2-amino-1,3-thiazol-4-yl)acetamido]-3-(1-carboxymethyl-1H-tetrazol-5-yl)thiomethyl-3-cephem-4-carboxylic acid (syn isomer)]
